Assay results as given in patent EP2269977B1, “Inhibitors of the 11-beta-hydroxysteroid dehydrogenase Type 1 enzyme” (AbbVie Inc., priority 2005, dated 2006).

Legend:
[1] = Metabolic stability screen in human liver microsomes; type: in vitro ADME; conditions: substrate 10 µM, microsomal protein 0.1- 0.5 mg/ml, 1mM NADPH, pH 7.4, 37°C, 30 min incubation, LC/MS, read-out: Human Liver Microsomal Turnover
Description: (§1) Metabolic stability screen: each substrate (10 µM) was incubated with microsomal protein (0.1- 0.5 mg/ml) in 50mM potassium phosphate buffer (pH 7.4) in 48-Well plate. The enzyme reaction was initiated by the addition of 1mM NADPH, then incubated at 37°C in a Forma Scientific incubator (Marietta, OH, USA) with gentle shaking. The reactions were quenched by the addition of 800 µl of ACN/MeOH (1:1, v/v), containing 0.5 µM of internal standard (IS), after 30 min incubation. Samples were then filtered by using Captiva 96-Well Filtration (Varian, Lake Forest, CA, USA) and analyzed by LC/MS (mass spectrometry). Liver microsomal incubations were conducted in duplicate.
(§2) The parent remaining in the incubation mixture was determined by LC/MS. […] A Luna C8(2) (50 x 2.0 mm, particle size 3 µm, Phenomenex, Torrance, CA, USA) was used to quantify each compound at ambient temperature. […]
(§3) The peak area ratios (each substrate over IS) at each incubation time were expressed as the percentage of the ratios (each substrate over IS) of the control samples (0 min incubation). The parent remaining in the incubation mixture was expressed as the percentage of the values at 0 min incubation. The percentage turnover is calculated using the following equation (%turnover =[…] - %parent remaining) and is recorded as the percentage turnover in the Table 2. […]

[2] = Metabolic stability screen in mouse liver microsomes; type: in vitro ADME; conditions: substrate 10 µM, microsomal protein 0.1- 0.5 mg/ml, 1mM NADPH, pH 7.4, 37°C, 30 min incubation, LC/MS, read-out: Mouse Liver Microsomal Turnover
Description: as §1, §2, §3

metabolised at 0.5 h, 10 µM [1]: 88%
metabolised at 0.5 h, 10 µM [2]: 86%
SMILES: CC(C)(Oc1ccc(Cl)cc1)C(=O)NC1C2CC3CC(C2)CC1C3 (centres unmarked) [EE, N-adamantan-2-yl-2-(4-chloro-phenoxy)-2-methyl-propionamide]
